Counter-ions that a name gives are not always drawn. The source made the active and inactive calls. No cut-off for these calls is given here.
Key:
MDCK = experiment: Cytotoxicity against dog MDCK cells after 48 hrs by MTT assay; type: functional, cell-based; settings: Canis lupus familiaris
K562/A02 = experiment: Cytotoxicity against human K562/A02 cells after 48 hrs by MTT assay; type: functional, cell-based; settings: K562/A02, 48 h
K562 = experiment: Cytotoxicity against human K562 cells after 48 hrs by MTT assay; type: functional, cell-based; settings: K562, 48 h
[1] = Cytotoxicity against dog MDCK-II-BCRP cells after 48 hrs by MTT assay; type: functional, cell-based; settings: Canis lupus familiaris
A549 = experiment: Antiproliferative activity against human A549 cells highly expressing EGFR after 48 hrs by MTT assay; type: functional, cell-based; settings: A549, 48 h
[2] = Reversal of P-gp-mediated multidrug resistance in human K562/A02 cells assessed as potentiation of adriamycin-induced cytotoxicity at 0.04 uM by measuring adriamycin IC50 after 48 hrs by MTT assay
Caco-2 [3] = experiment: Cytotoxicity against human Caco-2 cells assessed as reduction in cell viability at 50 uM after 48 hrs by MTT assay; type: toxicity, cell-based; settings: caco-2, 48 h
[4] = Reversal of BCRP-mediated multidrug resistance in dog MDCK-II-BCRP cells in presence of mitoxantrone after 48 hrs by MTT assay; type: cell-based; settings: Canis lupus familiaris
[5] = biological target: T1, ATP-dependent translocase ABCB1 (Homo sapiens, UniProt P08183); experiment: Inhibition of P-gp in human K562/A02 cells assessed as rescue of intracellular Rhodamine 123 accumulation at 5 uM incubated for 5 to 120 mins and measured by flow cytometry analysis; type: cell-based; settings: k562/a02, 5 µM, time 5-120 min
MDCK-II-BCRP = experiment: Inhibition of BCRP-mediated multidrug resistance in dog MDCK-II-BCRP cells assessed as mitoxantrone accumulation at 0.1 to 5 uM pretreated 1.5 hrs followed by treated with mitoxantrone measured after 4 hrs by flow cytometry analysis; type: cell-based; settings: Canis lupus familiaris, dose 0.1-5 µM
[6] = biological target: T1, ATP-dependent translocase ABCB1; experiment: Inhibition of P-gp-mediated multidrug resistance in human K562/A02 cells assessed as adriamycin accumulation at 0.5 to 5 uM pretreated 1.5 hrs followed by treated with adriamycin measured after 4 hrs by flow cytometry analysis; type: cell-based; settings: k562/a02, 1.5 h, dose 0.5-5 µM
[7] = Cmax in male Sprague-Dawley rat at 20 mg/kg,po measured by LC/MS analysis; type: ADME, organism-based; design: dose 20 mg/kg, route po; settings: in vivo
[8] = Apparent permeability of compound in human Caco-2 cells from apical to basal after 180 mins by LC-MS/MS analysis; type: ADME, cell-based
[9] = Tmax in male Sprague-Dawley rat at 20 mg/kg,po pretreated with 3-4-chloropheny1-N-4-2-morpholinoethylpheny1-4-oxo-3,4-dihydrophthalazine-1-carboxamide at 10 mg/kg measured by LC/MS analysis; type: ADME, organism-based; settings: in vivo
Caco-2 [10] = experiment: Cytotoxicity against human Caco-2 cells assessed as reduction in cell viability at 30 uM after 48 hrs by MTT assay; type: toxicity, cell-based; settings: caco-2, 48 h
[11] = Apparent permeability of compound in human Caco-2 cells from basal to apical after 30 mins by LC-MS/MS analysis; type: ADME, cell-based
[12] = Apparent permeability of compound in human Caco-2 cells from apical to basal after 30 mins by LC-MS/MS analysis; type: ADME, cell-based
[13] = Apparent permeability of compound in human Caco-2 cells from basal to apical after 60 mins by LC-MS/MS analysis; type: ADME, cell-based
[14] = Oral bioavailability in male Sprague-Dawley rat at 20 mg/kg,po pretreated with 3-4-chloropheny1-N-4-2-morpholinoethylpheny1-4-oxo-3,4-dihydrophthalazine-1-carboxamide at 10 mg/kg measured by LC/MS analysis; type: ADME, organism-based; settings: in vivo
[15] = Apparent permeability of compound in human Caco-2 cells from basal to apical after 120 mins by LC-MS/MS analysis; type: ADME, cell-based
[16] = Cmax in male Sprague-Dawley rat at 20 mg/kg,po pretreated with 3-4-chloropheny1-N-4-2-morpholinoethylpheny1-4-oxo-3,4-dihydrophthalazine-1-carboxamide at 10 mg/kg measured by LC/MS analysis; type: ADME, organism-based; design: dose 20 mg/kg, route po; settings: in vivo
[17] = Tmax in male Sprague-Dawley rat at 20 mg/kg,po measured by LC/MS analysis; type: ADME, organism-based; settings: in vivo
[18] = Apparent oral volume of distribution in male Sprague-Dawley rat at 20 mg/kg,po pretreated with 3-4-chloropheny1-N-4-2-morpholinoethylpheny1-4-oxo-3,4-dihydrophthalazine-1-carboxamide at 10 mg/kg measured by LC/MS analysis; type: ADME, organism-based; settings: in vivo
[19] = Bioavailability in male Sprague-Dawley rat at 5 mg/kg,iv measured by LC/MS analysis; type: ADME, organism-based; settings: in vivo
[20] = Apparent oral clearance in male Sprague-Dawley rat at 20 mg/kg,po pretreated with 3-4-chloropheny1-N-4-2-morpholinoethylpheny1-4-oxo-3,4-dihydrophthalazine-1-carboxamide at 10 mg/kg measured by LC/MS analysis; type: ADME, organism-based; settings: in vivo
[21] = Apparent permeability of compound in human Caco-2 cells from apical to basal after 60 mins by LC-MS/MS analysis; type: ADME, cell-based
in vivo = settings: male, Sprague-Dawley, rat, po, 20 mg/kg
[22] = Apparent permeability of compound in human Caco-2 cells from basal to apical after 90 mins by LC-MS/MS analysis; type: ADME, cell-based
[23] = Apparent permeability of compound in human Caco-2 cells from apical to basal after 90 mins by LC-MS/MS analysis; type: ADME, cell-based
[24] = Apparent permeability of compound in human Caco-2 cells from basal to apical after 180 mins by LC-MS/MS analysis; type: ADME, cell-based
[25] = AUC (0 to t) in male Sprague-Dawley rat at 20 mg/kg,po pretreated with 3-4-chloropheny1-N-4-2-morpholinoethylpheny1-4-oxo-3,4-dihydrophthalazine-1-carboxamide at 10 mg/kg measured by LC/MS analysis; type: ADME, organism-based; design: dose 20 mg/kg, route po; settings: in vivo
[26] = Apparent permeability of compound in human Caco-2 cells from apical to basal after 120 mins by LC-MS/MS analysis; type: ADME, cell-based
[27] = biological target: T2, Broad substrate specificity ATP-binding cassette transporter ABCG2 (Homo sapiens, UniProt Q9UNQ0); experiment: Inhibition of BCRP (unknown origin)
T2 sequence (Q9UNQ0 whole entry): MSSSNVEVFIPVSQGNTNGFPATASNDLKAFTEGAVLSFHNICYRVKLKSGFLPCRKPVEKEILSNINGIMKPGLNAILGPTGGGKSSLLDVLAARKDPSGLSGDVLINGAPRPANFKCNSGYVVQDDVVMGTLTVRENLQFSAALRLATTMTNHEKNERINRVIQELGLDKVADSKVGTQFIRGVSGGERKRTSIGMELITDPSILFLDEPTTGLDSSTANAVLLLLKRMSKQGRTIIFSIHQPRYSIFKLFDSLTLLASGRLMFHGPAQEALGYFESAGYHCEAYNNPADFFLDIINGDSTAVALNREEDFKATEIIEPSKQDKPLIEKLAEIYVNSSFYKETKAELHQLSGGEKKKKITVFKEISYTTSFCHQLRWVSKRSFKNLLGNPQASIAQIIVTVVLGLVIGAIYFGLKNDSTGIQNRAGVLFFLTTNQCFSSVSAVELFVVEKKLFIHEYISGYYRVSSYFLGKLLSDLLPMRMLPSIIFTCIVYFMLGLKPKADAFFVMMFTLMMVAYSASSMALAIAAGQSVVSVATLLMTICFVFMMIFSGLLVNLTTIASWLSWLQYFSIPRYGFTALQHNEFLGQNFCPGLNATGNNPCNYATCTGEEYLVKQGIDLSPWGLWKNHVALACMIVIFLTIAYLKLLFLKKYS

[28] = biological target: T1, ATP-dependent translocase ABCB1; experiment: Inhibition of P-gp (unknown origin)

T1 sequence (P08183 whole entry): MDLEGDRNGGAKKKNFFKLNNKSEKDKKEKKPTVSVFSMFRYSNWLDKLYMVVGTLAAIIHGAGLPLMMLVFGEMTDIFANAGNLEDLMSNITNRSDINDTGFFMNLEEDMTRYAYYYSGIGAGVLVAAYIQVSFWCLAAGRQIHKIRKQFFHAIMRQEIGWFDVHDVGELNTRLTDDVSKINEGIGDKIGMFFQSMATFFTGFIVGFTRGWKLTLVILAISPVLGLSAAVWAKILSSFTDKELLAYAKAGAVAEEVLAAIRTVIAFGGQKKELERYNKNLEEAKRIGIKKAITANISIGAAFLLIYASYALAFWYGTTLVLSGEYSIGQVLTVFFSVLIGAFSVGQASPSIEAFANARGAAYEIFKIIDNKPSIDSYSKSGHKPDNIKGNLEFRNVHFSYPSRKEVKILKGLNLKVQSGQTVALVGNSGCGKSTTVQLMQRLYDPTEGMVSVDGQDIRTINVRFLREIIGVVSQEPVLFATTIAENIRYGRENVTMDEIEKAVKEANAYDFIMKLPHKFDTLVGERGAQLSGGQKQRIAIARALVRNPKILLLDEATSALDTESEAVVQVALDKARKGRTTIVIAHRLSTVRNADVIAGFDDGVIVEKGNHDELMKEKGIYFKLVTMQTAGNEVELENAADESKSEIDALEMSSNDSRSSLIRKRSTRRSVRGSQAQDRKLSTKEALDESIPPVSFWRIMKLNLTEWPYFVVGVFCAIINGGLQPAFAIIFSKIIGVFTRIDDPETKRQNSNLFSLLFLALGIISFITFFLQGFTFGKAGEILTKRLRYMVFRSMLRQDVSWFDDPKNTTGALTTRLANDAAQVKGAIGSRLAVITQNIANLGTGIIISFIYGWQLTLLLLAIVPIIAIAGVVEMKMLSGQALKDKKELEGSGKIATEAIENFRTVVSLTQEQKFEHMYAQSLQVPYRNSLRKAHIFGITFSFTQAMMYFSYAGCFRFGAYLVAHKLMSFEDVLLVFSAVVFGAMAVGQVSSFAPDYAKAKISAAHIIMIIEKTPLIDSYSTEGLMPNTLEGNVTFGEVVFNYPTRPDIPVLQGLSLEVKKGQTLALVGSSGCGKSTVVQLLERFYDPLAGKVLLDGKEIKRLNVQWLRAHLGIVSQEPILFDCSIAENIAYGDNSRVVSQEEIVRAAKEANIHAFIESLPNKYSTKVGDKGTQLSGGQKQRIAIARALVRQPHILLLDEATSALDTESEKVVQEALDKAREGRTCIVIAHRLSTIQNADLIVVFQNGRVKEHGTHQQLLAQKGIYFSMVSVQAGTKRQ

O=C(NCCc1cccc(Cl)c1)c1nn(-c2ccc(Cl)cc2)c(=O)c2ccccc12
IC50 (MDCK): > 100 µM | IC50 (K562/A02): > 100 µM | IC50 (K562): > 100 µM | IC50 [1]: 51.4 µM | IC50 (A549): > 100 µM

O=C(Nc1ccc(CCN2CCOCC2)cc1)c1nn(-c2ccc(Cl)cc2)c(=O)c2ccccc12
IC50 [2]: 7232 µM | Activity (Caco-2 [3]): < 20% | IC50 (MDCK): 87.7 µM | EC50 [4]: 0.0982 µM | IC50 (K562/A02): 43.3 µM | IC50 (K562): 72.8 µM | IC50 [1]: 81.2 µM | inhibition (INH) [5]: Active | inhibition (MDCK-II-BCRP): Active | inhibition (INH) [6]: Active

O=C(NCCc1ccccc1)c1nn(-c2ccc(Cl)cc2)c(=O)c2ccccc12
IC50 (MDCK): > 100 µM | IC50 (K562/A02): > 100 µM | IC50 (K562): > 100 µM | IC50 [1]: 97.3 µM | IC50 (A549): 43.5 µM

COc1ccc(CCNC(=O)c2nn(-c3ccc(Cl)cc3)c(=O)c3ccccc23)cc1OC
IC50 (MDCK): > 100 µM | IC50 (K562/A02): > 100 µM | IC50 (K562): > 100 µM | IC50 [1]: > 100 µM | IC50 (A549): > 100 µM

COc1ccc2c3c([nH]c2c1)[C@H](CC(C)C)N1C(=O)[C@H](CCC(=O)OC(C)(C)C)NC(=O)[C@@H]1C3
IC50 (MDCK): 93.3 µM | IC50 [1]: > 100 µM

CC(=O)O[C@H]1C(=O)[C@@]2(C)[C@H]([C@H](OC(=O)c3ccccc3)[C@]3(O)C[C@H](OC(=O)[C@H](O)[C@@H](NC(=O)c4ccccc4)c4ccccc4)C(C)=C1C3(C)C)[C@]1(OC(C)=O)CO[C@@H]1C[C@@H]2O [PACLITAXEL]
Cmax [7]: 112 ng/mL | Papp A→B at 3 h [8]: 2.69 ×10⁻⁶ cm/s | Tmax [9]: 2.51 h | Activity (Caco-2 [10]): < 20% | Papp B→A at 0.5 h [11]: 1.29 ×10⁻⁶ cm/s | Papp A→B at 0.5 h [12]: 0.09 ×10⁻⁶ cm/s | Papp B→A at 1 h [13]: 2.5 ×10⁻⁶ cm/s | bioavailability [14]: 45.1% | Papp B→A at 2 h [15]: 11.1 ×10⁻⁶ cm/s | Cmax [16]: 652 ng/mL | Tmax [17]: 2 h | Vd/F [18]: 16 L | F [19]: 100% | CL/F [20]: 103 mL/min | Papp A→B at 1 h [21]: 1.02 ×10⁻⁶ cm/s | half-life (in vivo): 1.68 h | Papp B→A at 1.5 h [22]: 5.85 ×10⁻⁶ cm/s | Papp A→B at 1.5 h [23]: 1.98 ×10⁻⁶ cm/s | Papp B→A at 3 h [24]: 19.4 ×10⁻⁶ cm/s | AUC(0-t) [25]: 3130 ng·h/mL | Papp A→B at 2 h [26]: 2.42 ×10⁻⁶ cm/s

CS(=O)(=O)CCNCc1ccc(-c2ccc3ncnc(Nc4ccc(OCc5cccc(F)c5)c(Cl)c4)c3c2)o1 [LAPATINIB]
EC50 [27]: 3.2 µM | EC50 [28]: > 2.79 µM

COc1cc2ncnc(Nc3ccc(F)c(Cl)c3)c2cc1OCCCN1CCOCC1 [GEFITINIB]
inhibition (INH) [5]: Active | EC50 [28]: > 1 µM

COc1cc2c(cc1OC)CN(CCc1ccc(NC(=O)c3cc(OC)c(OC)cc3NC(=O)c3cnc4ccccc4c3)cc1)CC2
IC50 (MDCK): > 100 µM | IC50 [1]: > 100 µM

O=C(NCCN1CCOCC1)c1nn(-c2ccc(Cl)cc2)c(=O)c2ccccc12
IC50 (MDCK): > 100 µM | IC50 (K562/A02): > 100 µM | IC50 (K562): > 100 µM | IC50 [1]: > 100 µM | IC50 (A549): > 100 µM

O=C(Nc1ccc(N2CCOCC2)cc1)c1nn(-c2ccc(Cl)cc2)c(=O)c2ccccc12
IC50 (MDCK): > 100 µM | IC50 (K562/A02): > 100 µM | IC50 (K562): > 100 µM | IC50 [1]: > 100 µM | IC50 (A549): > 100 µM

O=C(Nc1ccc(CCN2CCc3ccccc3C2)cc1)c1nn(-c2ccc(Cl)cc2)c(=O)c2ccccc12
IC50 (MDCK): > 100 µM | IC50 (K562/A02): > 100 µM | IC50 (K562): > 100 µM | IC50 [1]: > 100 µM | IC50 (A549): > 100 µM

COc1cccc2c1C(=O)c1c(O)c3c(c(O)c1C2=O)C[C@@](O)(C(=O)CO)C[C@@H]3O[C@H]1C[C@H](N)[C@H](O)[C@H](C)O1 [DOXORUBICIN HYDROCHLORIDE]
IC50 (K562/A02): 78.3 µM | IC50 (K562): 0.92 µM

C#Cc1cccc(Nc2ncnc3cc(OCCOC)c(OCCOC)cc23)c1 [ERLOTINIB]
EC50 [27]: 0.17 µM | EC50 [28]: > 4.93 µM

COc1ccc(CCN(C)CCCC(C#N)(c2ccc(OC)c(OC)c2)C(C)C)cc1OC (stereo not given)
IC50 (K562/A02): 39.9 µM | inhibition (INH) [5]: Active

O=C(NCCc1cccc(F)c1)c1nn(-c2ccc(Cl)cc2)c(=O)c2ccccc12
IC50 (MDCK): > 100 µM | IC50 (K562/A02): > 100 µM | IC50 (K562): > 100 µM | IC50 [1]: > 100 µM | IC50 (A549): 69.1 µM

O=C(NCCCN1CCOCC1)c1nn(-c2ccc(Cl)cc2)c(=O)c2ccccc12
IC50 (MDCK): > 100 µM | IC50 (K562/A02): > 100 µM | IC50 (K562): > 100 µM | IC50 [1]: > 100 µM | IC50 (A549): 73.4 µM

Reference: ChEMBL document CHEMBL5154779, “Exploration of novel phthalazinone derivatives as potential efflux transporter inhibitors for reversing multidrug resistance and improving the oral absorption of paclitaxel” (Eur J Med Chem, 2022)
